Key:
[1] = xn = mol fraction of the nth substance listed; settings: 100 kPa, Liquid, Vibrating tube method
[2] = refractive index (Na D-line) (dimensionless); xn = mol fraction of the nth substance listed; settings: 100 kPa, Liquid, Standard Abbe refractometry

CCn1cc[n+](C)c1.O=S(=O)([O-])C(F)(F)F [1-ethyl-3-methylimidazolium trifluoromethanesulfonate] + O
Settings	mass density, [1] [kg/m3]	refractive index, [2]
293.15 K, x1 = 0.1001	1209.27	1.3885
293.15 K, x1 = 0.2002	1281.52	1.406
293.15 K, x1 = 0.3005	1315.51	1.4155
293.15 K, x1 = 0.4002	1336.6	1.421
293.15 K, x1 = 0.5003	1352.45	1.425
293.15 K, x1 = 0.5997	1364.43	1.4275
293.15 K, x1 = 0.6996	1372.69	1.43
293.15 K, x1 = 0.8011	1379.1	1.4315
293.15 K, x1 = 0.8992	1384.17	1.4325
303.15 K, x1 = 0.1001	1201.8	1.3865
303.15 K, x1 = 0.2002	1272.85	1.4055
303.15 K, x1 = 0.3005	1307.15	1.414
303.15 K, x1 = 0.4002	1328.01	1.4175
303.15 K, x1 = 0.5003	1343.96	1.423
303.15 K, x1 = 0.5997	1356.16	1.4255
303.15 K, x1 = 0.6996	1364.59	1.4275
303.15 K, x1 = 0.8011	1370.87	1.4295
303.15 K, x1 = 0.8992	1375.74	1.43
313.15 K, x1 = 0.1001	1193.23	1.386
313.15 K, x1 = 0.2002	1263.86	1.403
313.15 K, x1 = 0.3005	1298.67	1.412
313.15 K, x1 = 0.4002	1319.89	1.415
313.15 K, x1 = 0.5003	1335.41	1.421
313.15 K, x1 = 0.5997	1347.44	1.4235
313.15 K, x1 = 0.6996	1355.79	1.4255
313.15 K, x1 = 0.8011	1362.45	1.427
313.15 K, x1 = 0.8992	1367.34	1.4285
323.15 K, x1 = 0.1001	1184.96	1.3855
323.15 K, x1 = 0.2002	1254.13	1.4025
323.15 K, x1 = 0.3005	1289.63	1.411
323.15 K, x1 = 0.4002	1311.02	1.414
323.15 K, x1 = 0.5003	1326.85	1.42
323.15 K, x1 = 0.5997	1338.82	1.422
323.15 K, x1 = 0.6996	1347.42	1.4235
323.15 K, x1 = 0.8011	1353.98	1.4255
323.15 K, x1 = 0.8992	1359.01	1.426
333.15 K, x1 = 0.1001	1175.32	1.385
333.15 K, x1 = 0.2002	1243.01	1.4005
333.15 K, x1 = 0.3005	1279.6	1.4095
333.15 K, x1 = 0.4002	1301.89	1.413
333.15 K, x1 = 0.5003	1318.27	1.418
333.15 K, x1 = 0.5997	1329.91	1.418
333.15 K, x1 = 0.6996	1338.78	1.421
333.15 K, x1 = 0.8011	1345.55	1.423
333.15 K, x1 = 0.8992	1350.72	1.4237
343.15 K, x1 = 0.1001	1162.52	1.385
343.15 K, x1 = 0.2002	1232.07	1.3995
343.15 K, x1 = 0.3005	1269.41	1.409
343.15 K, x1 = 0.4002	1292.35	1.413
343.15 K, x1 = 0.5003	1309.53	1.417
343.15 K, x1 = 0.5997	1321.23	1.4175
343.15 K, x1 = 0.6996	1330.17	1.419
343.15 K, x1 = 0.8011	1336.93	1.421
343.15 K, x1 = 0.8992	1342.48	1.4215

CCCCn1cc[n+](C)c1.F[B-](F)(F)F [1-butyl-3-methylimidazolium tetrafluoroborate] + O
Settings	mass density, [1] [kg/m3]	refractive index, [2]
293.15 K, x1 = 0.0994	1106.69	1.383
293.15 K, x1 = 0.2005	1143.19	1.397
293.15 K, x1 = 0.3003	1161.69	1.406
293.15 K, x1 = 0.4003	1173.6	1.411
293.15 K, x1 = 0.5006	1182.13	1.414
293.15 K, x1 = 0.6004	1188.42	1.4165
293.15 K, x1 = 0.7008	1193.17	1.418
293.15 K, x1 = 0.8006	1196.75	1.42
293.15 K, x1 = 0.899	1199.6	1.4215
303.15 K, x1 = 0.0994	1100.29	1.379
303.15 K, x1 = 0.2005	1135.92	1.395
303.15 K, x1 = 0.3003	1154.24	1.403
303.15 K, x1 = 0.4003	1166.15	1.409
303.15 K, x1 = 0.5006	1174.73	1.4125
303.15 K, x1 = 0.6004	1181.09	1.415
303.15 K, x1 = 0.7008	1185.92	1.4165
303.15 K, x1 = 0.8006	1189.58	1.418
303.15 K, x1 = 0.899	1192.49	1.4195
313.15 K, x1 = 0.0994	1093.06	1.3765
313.15 K, x1 = 0.2005	1128.35	1.394
313.15 K, x1 = 0.3003	1146.77	1.4015
313.15 K, x1 = 0.4003	1158.78	1.4075
313.15 K, x1 = 0.5006	1167.43	1.41
313.15 K, x1 = 0.6004	1173.85	1.4125
313.15 K, x1 = 0.7008	1178.71	1.414
313.15 K, x1 = 0.8006	1182.39	1.416
313.15 K, x1 = 0.899	1185.31	1.4175
323.15 K, x1 = 0.0994	1085.97	1.376
323.15 K, x1 = 0.2005	1120.89	1.393
323.15 K, x1 = 0.3003	1139.33	1.4015
323.15 K, x1 = 0.4003	1151.42	1.4055
323.15 K, x1 = 0.5006	1160.15	1.4075
323.15 K, x1 = 0.6004	1166.65	1.4105
323.15 K, x1 = 0.7008	1171.59	1.4125
323.15 K, x1 = 0.8006	1175.31	1.414
323.15 K, x1 = 0.899	1178.26	1.415
333.15 K, x1 = 0.0994	1079.15	1.3755
333.15 K, x1 = 0.2005	1113.47	1.39
333.15 K, x1 = 0.3003	1131.87	1.401
333.15 K, x1 = 0.4003	1144.01	1.405
333.15 K, x1 = 0.5006	1152.8	1.4075
333.15 K, x1 = 0.6004	1159.37	1.4095
333.15 K, x1 = 0.7008	1164.36	1.411
333.15 K, x1 = 0.8006	1168.12	1.4125
333.15 K, x1 = 0.899	1171.04	1.4135
343.15 K, x1 = 0.0994	1072.21	1.3755
343.15 K, x1 = 0.2005	1106.02	1.39
343.15 K, x1 = 0.3003	1124.41	1.401
343.15 K, x1 = 0.4003	1136.62	1.4045
343.15 K, x1 = 0.5006	1145.48	1.407
343.15 K, x1 = 0.6004	1152.11	1.407
343.15 K, x1 = 0.7008	1157.17	1.4085
343.15 K, x1 = 0.8006	1161	1.409
343.15 K, x1 = 0.899	1164.1	1.411
